The values that follow come from US20240108610A1, “RECTAL ADMINISTRATION OF ROFLUMILAST FOR THE TREATMENT OF CROHN'S DISEASE” (King Abdulaziz University, priority 2022, published 2024).

Marks after values point to notes of the source that are not given here.

For one experiment, the system named is MPO. The experiment in a line: Colonic MPO in colonic tissue homogenates, TNBS-induced colitis. The following applies: means±SE, n = 8. It is filed as in vivo, rat. Here is the method:
Chronic colitis was induced by weekly rectal injections of increasing doses of TNBS over 6 weeks (15, 30, 45, 60, 60, and 60 mg from day 0 to day 35), as previously described (4,12). Briefly, after food deprivation for 24 h, rats were anesthetized with an intraperitoneal injection of 1% isoflurane. TNBS was dissolved in ethanol (50%) and instilled into the colon using a cannula (0.25 mL), and then the rats were held upside down for 3 min to prevent escape of the intracolonic TNBS. Roflumilast was dissolved in dimethyl sulfoxide and diluted in 0.5% carboxymethyl cellulose sodium to a final concentration of 5.0 mg·kg^−1·day^−1 as previously described (13). Five groups of rats (n=8) were established: normal control (NC group), TNBS-treated (TNBS group, positive control), and three TNBS-treated groups that received oral sulfasalazine (SS group, 500 mg/kg) (14), oral roflumilast (by gastric gavage, OR group, 5 mg/kg), or rectal roflumilast (RR group, 5 mg/kg). Treatments were administered once daily in a volume of 200 μL for 15 days starting 48 h after the induction of colitis (from day 37) (15), and the control rats received equal amounts of vehicle. At the end of the treatment period, the rats were evaluated with the colitis activity score. […] At the end of the 15-day treatment period, the rats were sacrificed by cervical dislocation, and the colon was isolated, cleaned of feces, and measured for weight and length. Colonic myeloperoxidase (MPO) activity and glutathione (GSH) and malonaldehyde (MDA) levels were measured. […] The levels of MPO (a marker of neutrophil activity), GSH (one of the most important cellular antioxidants), and MDA (an indicator of lipid peroxidation) in colonic tissue homogenates were measured using the commercially available kits as previously described: MPO ELISA kit (Innovative Research) (18), GSH colorimetric assay kit (Innovative Research) (19), and MDA ELISA kit (Neobio Lab Comp., USA) (20).

In a further experiment the test system is KI-67. The experiment in a line: KI-67 immunostaining of colonic sections. It is filed as in vivo, rat. Here is the method: Chronic colitis was induced by weekly rectal injections of increasing doses of TNBS over 6 weeks (15, 30, 45, 60, 60, and 60 mg from day 0 to day 35), as previously described (4,12). Briefly, after food deprivation for 24 h, rats were anesthetized with an intraperitoneal injection of 1% isoflurane. TNBS was dissolved in ethanol (50%) and instilled into the colon using a cannula (0.25 mL), and then the rats were held upside down for 3 min to prevent escape of the intracolonic TNBS. Roflumilast was dissolved in dimethyl sulfoxide and diluted in 0.5% carboxymethyl cellulose sodium to a final concentration of 5.0 mg·kg^−1·day^−1 as previously described (13). Five groups of rats (n=8) were established: normal control (NC group), TNBS-treated (TNBS group, positive control), and three TNBS-treated groups that received oral sulfasalazine (SS group, 500 mg/kg) (14), oral roflumilast (by gastric gavage, OR group, 5 mg/kg), or rectal roflumilast (RR group, 5 mg/kg). Treatments were administered once daily in a volume of 200 μL for 15 days starting 48 h after the induction of colitis (from day 37) (15), and the control rats received equal amounts of vehicle. At the end of the treatment period, the rats were evaluated with the colitis activity score. To detect the effects of the treatments on systemic inflammatory processes, blood was collected for measurements of the proinflammatory mediators TNF-α, IL-2, and IL-6. At the end of the 15-day treatment period, the rats were sacrificed by cervical dislocation, and the colon was isolated, cleaned of feces, and measured for weight and length. Colonic myeloperoxidase (MPO) activity and glutathione (GSH) and malonaldehyde (MDA) levels were measured. The colon was examined macroscopically for gross changes and microscopically in sections stained with hematoxylin and eosin (H&E), Masson trichrome, and Periodic Acid Schiff (PAS) stains as well as KI-67 and TNF-α immunostaining. […] This primary antibody was detected using avidin-biotin peroxidase detection solution (Dako), and the signal was visualized using diaminobenzidine. […]

The mark [1] stands for this setting: oral, once daily for 15 days, SS 500 mg/kg, OR 5 mg/kg.
Setting [2] is: oral, once daily for 15 days, sulfasalazine 500 mg/kg, roflumilast 5 mg/kg.
The mark [3] stands for this setting: rectal, 5 mg/kg once daily for 15 days.

Take `O=C(O)c1cc(/N=N/c2ccc(S(=O)(=O)Nc3ccccn3)cc2)ccc1O` [sulfasalazine]: in the experiment on MPO (setting [1]), the “colonic MPO activity” value is recorded as 18.38 ± 0.87^a μ/g. For the same compound, the “KI-67 immunoexpression in the mucosa” value with KI-67 (setting [2]) is given as “moderately positive reactions”.

For the compound `O=C(Nc1c(Cl)cncc1Cl)c1ccc(OC(F)F)c(OCC2CC2)c1` [roflumilast], the “colonic MPO activity” value in the experiment on MPO (setting [1]) is recorded as 23.89 ± 0.92^a, b, c μ/g; in the experiment on MPO (setting [3]) it was 28.17 ± 1.00^a μ/g. In addition, the “KI-67 immunoexpression in the mucosa” value in the experiment on KI-67 (setting [2]) is given as “mildly positive reactions”; with KI-67 (setting [3]), “very mild positive reactions”.
